Results taken from patent US6355799B1, “Substituted benzene compounds, process for their preparation, and herbicidal and defoliant compositions containing them” (ISK Americas Incorporated, priority 1997, dated 2002).

Tests used:
Assay type in all cases: in vivo
[1] = test system: redroot pigweed (Amaranthus retroflexus, AMARE); test: Pre-emerge test, greenhouse herbicide activity screening; conditions: pre-emerge, 14 days after application, scale 0-100
Summary of the method: (§1)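 Plants grown in 10 cm pots of sandy loam mix received acetone-dissolved compounds through a moving flat-fan nozzle. Doses ranged from 15 to 1000 g ai/ha. Pre-emerge pots were seeded one day earlier, post-emerge pots 8–21 days earlier. Fourteen days on, each pot was graded 0–100 for damage.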

[2] = test system: large crabgrass (Digitaria sanguinalis, DIGSA); test: as above; conditions: pre-emerge, 14 days after application, scale 0-100
Summary of the method: (§2)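 Rating: 0–100 visual injury, 14 DAA. Application: acetone, 187 l/ha, 15–1000 g ai/ha, flat-fan track sprayer with nozzle 40–45 cm above soil or canopy. Post-emerge runs used 0.25% v/v surfactant on 2–3 leaf plants.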

[3] = test system: lambsquarters (Chenopodium album, CHEAL); test: as above; conditions: pre-emerge, 14 days after application, scale 0-100
Summary of the method: as §2

[4] = test system: velvetleaf (Abutilon theophrasti, ABUTH); test: as above; conditions: pre-emerge, 14 days after application, scale 0-100
Summary of the method: as §2

[5] = test system: green foxtail (Setaria viridis, SETVI); test: as above; conditions: pre-emerge, 14 days after application, scale 0-100
Summary of the method: as §2

[6] = test system: ivyleaf morningglory (Ipomoea hederacea, IPOHE); test: as above; conditions: pre-emerge, 14 days after application, scale 0-100
Summary of the method: as §2

[7] = test system: johnsongrass (Sorghum halepense, SORHA); test: as above; conditions: pre-emerge, 14 days after application, scale 0-100
Summary of the method: as §2

[8] = test system: sicklepod (Cassia obtusifolia, CASOB); test: as above; conditions: pre-emerge, 14 days after application, scale 0-100
Summary of the method: as §2

[9] = test system: barnyardgrass (Echinochloa crus-galli, ECHCG); test: as above; conditions: pre-emerge, 14 days after application, scale 0-100
Summary of the method: as §2

[10] = test system: field corn (Zea mays L., var. Dekalb 535, CORN); test: Post-emerge test, crop safety; conditions: post-emerge, 14 days after application, rating scale 0-100
Summary of the method: as §1

[11] = test system: upland rice (Oryza sp., var. Tebonnet, RICE); test: Post-emerge test, crop safety; conditions: post-emerge, 14 days after application, rating scale 0-100
Summary of the method: as §1

[12] = test system: field corn (Zea mays L., var. Dekalb 535, CORN); test: Pre-emerge test, crop safety; conditions: pre-emerge, 14 days after application, scale 0-100
Summary of the method: (§3)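 Fourteen days after spraying, crop and weed injury was graded visually from 0, no effect, to 100, every plant dead. Test substances were dissolved in acetone and applied at 15–1000 g ai/ha with a flat-fan nozzle. Application was either pre-emergence, one day after sowing, or post-emergence at the 2–3 leaf stage.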

[13] = test system: upland rice (Oryza sp., var. Tebonnet, RICE); test: Pre-emerge test, crop safety; conditions: pre-emerge, 14 days after application, scale 0-100
Summary of the method: as §3

[14] = test system: redroot pigweed (Amaranthus retroflexus, AMARE); test: Post-emerge test, greenhouse herbicide activity screening; conditions: post-emerge, 14 days after application, rating scale 0-100
Summary of the method: (§4)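 Compounds in acetone were track-sprayed at 15-1000 g ai/ha (187 l/ha) on sandy loam pots: pre-emerge one day after seeding, post-emerge at 2-3 leaf stage with 0.25% v/v non-ionic surfactant. Phytotoxicity was rated 14 days later on a 0 (no damage) to 100 (complete death) scale.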

[15] = test system: large crabgrass (Digitaria sanguinalis, DIGSA); test: as above; conditions: post-emerge, 14 days after application, rating scale 0-100
Summary of the method: as §4

[16] = test system: lambsquarters (Chenopodium album, CHEAL); test: as above; conditions: post-emerge, 14 days after application, rating scale 0-100
Summary of the method: as §4

[17] = test system: velvetleaf (Abutilon theophrasti, ABUTH); test: as above; conditions: post-emerge, 14 days after application, rating scale 0-100
Summary of the method: as §4

[18] = test system: green foxtail (Setaria viridis, SETVI); test: as above; conditions: post-emerge, 14 days after application, rating scale 0-100
Summary of the method: as §4

[19] = test system: ivyleaf morningglory (Ipomoea hederacea, IPOHE); test: as above; conditions: post-emerge, 14 days after application, rating scale 0-100
Summary of the method: as §4

[20] = test system: sicklepod (Cassia obtusifolia, CASOB); test: as above; conditions: post-emerge, 14 days after application, rating scale 0-100
Summary of the method: as §4

[21] = test system: barnyardgrass (Echinochloa crus-galli, ECHCG); test: as above; conditions: post-emerge, 14 days after application, rating scale 0-100
Summary of the method: as §4

COc1c(Cl)cc(F)c(-n2c(=O)cc(C(F)(F)F)n(C)c2=O)c1NC(=O)COc1ccc(Cl)cc1Cl [2-154]
phytotoxicity rating AMARE ([1]; 63 g ai/ha): 100 | phytotoxicity rating AMARE ([1]; 250 g ai/ha): 100 | phytotoxicity rating DIGSA ([2]; 63 g ai/ha): 85 | phytotoxicity rating DIGSA ([2]; 250 g ai/ha): 95 | phytotoxicity rating CHEAL ([3]; 63 g ai/ha): 100 | phytotoxicity rating CHEAL ([3]; 250 g ai/ha): 100 | phytotoxicity rating ABUTH ([4]; 63 g ai/ha): 100 | phytotoxicity rating ABUTH ([4]; 250 g ai/ha): 100 | phytotoxicity rating SETVI ([5]; 63 g ai/ha): 70 | phytotoxicity rating SETVI ([5]; 250 g ai/ha): 100 | phytotoxicity rating IPOHE ([6]; 63 g ai/ha): 80 | phytotoxicity rating IPOHE ([6]; 250 g ai/ha): 100 | phytotoxicity rating SORHA ([7]; 63 g ai/ha): 80 | phytotoxicity rating SORHA ([7]; 250 g ai/ha): 95 | phytotoxicity rating CASOB ([8]; 63 g ai/ha): 60 | phytotoxicity rating CASOB ([8]; 250 g ai/ha): 95 | phytotoxicity rating ECHCG ([9]; 63 g ai/ha): 50 | phytotoxicity rating ECHCG ([9]; 250 g ai/ha): 95 | CORN phytotoxicity rating (crop damage) ([10]; 63 g ai/ha): 10 | CORN phytotoxicity rating (crop damage) ([10]; 250 g ai/ha): 85 | RICE phytotoxicity rating (crop damage) ([11]; 63 g ai/ha): 65 | RICE phytotoxicity rating (crop damage) ([11]; 250 g ai/ha): 90 | phytotoxicity rating CORN (crop damage) ([12]; 63 g ai/ha): 10 | phytotoxicity rating CORN (crop damage) ([12]; 250 g ai/ha): 90 | phytotoxicity rating RICE (crop damage) ([13]; 63 g ai/ha): 35 | phytotoxicity rating RICE (crop damage) ([13]; 250 g ai/ha): 70 | AMARE phytotoxicity rating ([14]; 63 g ai/ha): 100 | AMARE phytotoxicity rating ([14]; 250 g ai/ha): 100 | DIGSA phytotoxicity rating ([15]; 63 g ai/ha): 10 | DIGSA phytotoxicity rating ([15]; 250 g ai/ha): 85 | CHEAL phytotoxicity rating ([16]; 63 g ai/ha): 100 | CHEAL phytotoxicity rating ([16]; 250 g ai/ha): 100 | ABUTH phytotoxicity rating ([17]; 63 g ai/ha): 100 | ABUTH phytotoxicity rating ([17]; 250 g ai/ha): 100 | SETVI phytotoxicity rating ([18]; 63 g ai/ha): 40 | SETVI phytotoxicity rating ([18]; 250 g ai/ha): 95 | IPOHE phytotoxicity rating ([19]; 63 g ai/ha): 100 | IPOHE phytotoxicity rating ([19]; 250 g ai/ha): 100 | CASOB phytotoxicity rating ([20]; 63 g ai/ha): 50 | CASOB phytotoxicity rating ([20]; 250 g ai/ha): 100 | ECHCG phytotoxicity rating ([21]; 63 g ai/ha): 80 | ECHCG phytotoxicity rating ([21]; 250 g ai/ha): 95
